Source: ChEMBL document CHEMBL3352319, “Identification and pharmacological characterization of 3,6-diazabicyclo[3.1.1]heptane-3-carboxamides as novel ligands for the α4β2 and α6/α3β2β3 nicotinic acetylcholine receptors (nAChRs)” (Eur J Med Chem, 2014)

How the values were obtained:
[1] = target: T1, Neuronal acetylcholine receptor; alpha4/beta2 (Homo sapiens, UniProt P17787+P43681); experiment: Displacement of [3H] nicotine from human alpha4beta2 nAChR transfected in SH-EP1 cells by liquid scintillation counting; assay type: cell-based
[2] = target: T2, Neuronal acetylcholine receptor; alpha3/alpha6/beta2/beta3 (Homo sapiens, UniProt P17787+P32297+Q05901+Q15825); experiment: Displacement of [3H]epibatidine from human alpha6/alpha3beta2beta3 nAChR transfected in CHO cells by liquid scintillation counting; assay type: cell-based
[3] = target: T1, Neuronal acetylcholine receptor; alpha4/beta2; experiment: Agonist activity at human alpha4beta2 nAChR transfected in SH-EP1 cells assessed as calcium flux by FLIPR assay; assay type: cell-based
[4] = target: T1, Neuronal acetylcholine receptor; alpha4/beta2; experiment: Agonist activity at human alpha4beta2 nAChR low sensitivity isoform transfected in SH-EP1 cells assessed as calcium flux by FLIPR assay; assay type: cell-based
[5] = target: T1, Neuronal acetylcholine receptor; alpha4/beta2; experiment: Agonist activity at human alpha4beta2 nAChR low sensitivity isoform transfected in SH-EP1 cells assessed as calcium flux by FLIPR assay relative to control; assay type: cell-based
[6] = target: T1, Neuronal acetylcholine receptor; alpha4/beta2; experiment: Agonist activity at human alpha4beta2 nAChR high sensitivity isoform transfected in SH-EP1 cells assessed as calcium flux by FLIPR assay relative to control; assay type: cell-based
[7] = target: T2, Neuronal acetylcholine receptor; alpha3/alpha6/beta2/beta3; experiment: Agonist activity at human alpha6/alpha3beta2beta3 nAChR transfected in CHO cells assessed as calcium flux by FLIPR assay; assay type: cell-based
[8] = target: Neuronal acetylcholine receptor; alpha3/alpha6/beta2/beta3 (Homo sapiens) (UniProt P17787+P32297+Q15825+Q05901); experiment: Agonist activity at human alpha6/alpha3beta2beta3 nAChR transfected in CHO cells assessed as calcium flux by FLIPR assay relative to control; assay type: cell-based
[9] = Cmax in po dosed rat; assay type: ADME, organism-based; set-up: route oral; details: in vivo
[10] = Tmax in po dosed rat; assay type: ADME, organism-based; details: in vivo
[11] = Oral bioavailability in rat; assay type: ADME, organism-based; details: in vivo
[12] = Half life in po dosed rat; assay type: ADME, organism-based; details: in vivo
[13] = Drug uptake in po dosed rat plasma after 0.5 hrs by LC-MS/MS analysis; assay type: ADME, organism-based
[14] = Drug uptake in po dosed rat brain after 0.5 hrs by LC-MS/MS analysis; assay type: ADME, organism-based; details: read-out: Drug uptake
[15] = Ratio of drug level in po dosed rat brain to plasma after 0.5 hrs by LC-MS/MS analysis; assay type: ADME, organism-based; details: read-out: BPR
[16] = Drug uptake in po dosed rat plasma after 1 hrs by LC-MS/MS analysis; assay type: ADME, organism-based
[17] = Drug uptake in po dosed rat brain after 1 hrs by LC-MS/MS analysis; assay type: ADME, organism-based; details: read-out: Drug uptake
[18] = Ratio of drug level in po dosed rat brain to plasma after 1 hrs by LC-MS/MS analysis; assay type: ADME, organism-based; details: read-out: BPR
[19] = Drug uptake in po dosed rat plasma after 4 hrs by LC-MS/MS analysis; assay type: ADME, organism-based
[20] = Drug uptake in po dosed rat brain after 4 hrs by LC-MS/MS analysis; assay type: ADME, organism-based; details: read-out: Drug uptake
[21] = Ratio of drug level in po dosed rat brain to plasma after 4 hrs by LC-MS/MS analysis; assay type: ADME, organism-based; details: read-out: BPR
Rattus norvegicus = species: Rattus norvegicus; experiment: Inhibition of L-dopa-induced abnormal involuntary movement in rat; assay type: functional

T2 sequence (P17787 whole entry): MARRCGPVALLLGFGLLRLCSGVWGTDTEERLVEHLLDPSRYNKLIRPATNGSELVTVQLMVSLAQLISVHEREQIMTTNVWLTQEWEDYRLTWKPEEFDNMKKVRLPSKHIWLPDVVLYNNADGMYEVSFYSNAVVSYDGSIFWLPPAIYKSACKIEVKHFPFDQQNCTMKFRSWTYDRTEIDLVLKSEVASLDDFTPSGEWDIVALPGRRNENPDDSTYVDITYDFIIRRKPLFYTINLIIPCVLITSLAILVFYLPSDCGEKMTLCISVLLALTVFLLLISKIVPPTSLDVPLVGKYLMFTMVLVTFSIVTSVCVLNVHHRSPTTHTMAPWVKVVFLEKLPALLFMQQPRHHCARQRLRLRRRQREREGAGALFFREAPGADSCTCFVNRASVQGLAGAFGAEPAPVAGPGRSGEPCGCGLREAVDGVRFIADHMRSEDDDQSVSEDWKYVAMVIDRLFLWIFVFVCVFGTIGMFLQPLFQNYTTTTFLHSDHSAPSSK
T2 sequence (P32297 whole entry): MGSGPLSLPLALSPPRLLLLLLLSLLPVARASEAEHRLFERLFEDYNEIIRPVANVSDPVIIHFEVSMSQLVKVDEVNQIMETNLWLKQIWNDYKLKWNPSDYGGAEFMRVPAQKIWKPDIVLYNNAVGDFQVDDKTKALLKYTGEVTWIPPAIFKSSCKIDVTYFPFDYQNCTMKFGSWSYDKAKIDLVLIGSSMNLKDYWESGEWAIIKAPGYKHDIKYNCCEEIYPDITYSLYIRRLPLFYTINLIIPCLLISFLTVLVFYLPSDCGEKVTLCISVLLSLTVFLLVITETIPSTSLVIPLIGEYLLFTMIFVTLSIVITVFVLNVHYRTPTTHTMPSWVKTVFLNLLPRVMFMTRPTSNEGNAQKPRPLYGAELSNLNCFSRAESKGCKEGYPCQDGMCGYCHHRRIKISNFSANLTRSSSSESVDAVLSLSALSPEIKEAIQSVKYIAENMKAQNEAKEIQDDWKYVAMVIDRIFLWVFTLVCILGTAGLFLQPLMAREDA
T2 sequence (Q15825 whole entry): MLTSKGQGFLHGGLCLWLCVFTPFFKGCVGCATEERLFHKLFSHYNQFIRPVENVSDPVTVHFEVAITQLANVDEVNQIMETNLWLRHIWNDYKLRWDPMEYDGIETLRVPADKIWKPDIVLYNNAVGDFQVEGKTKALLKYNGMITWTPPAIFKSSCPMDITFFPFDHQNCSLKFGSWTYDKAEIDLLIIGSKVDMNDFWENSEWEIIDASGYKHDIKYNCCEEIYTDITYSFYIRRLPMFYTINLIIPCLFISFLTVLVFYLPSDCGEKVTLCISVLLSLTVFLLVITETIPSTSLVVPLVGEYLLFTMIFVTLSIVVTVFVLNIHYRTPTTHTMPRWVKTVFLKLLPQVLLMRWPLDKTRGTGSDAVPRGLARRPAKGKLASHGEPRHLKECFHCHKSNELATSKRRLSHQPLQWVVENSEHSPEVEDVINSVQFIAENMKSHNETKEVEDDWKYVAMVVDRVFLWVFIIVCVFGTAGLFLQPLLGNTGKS
T2 sequence (Q05901 whole entry): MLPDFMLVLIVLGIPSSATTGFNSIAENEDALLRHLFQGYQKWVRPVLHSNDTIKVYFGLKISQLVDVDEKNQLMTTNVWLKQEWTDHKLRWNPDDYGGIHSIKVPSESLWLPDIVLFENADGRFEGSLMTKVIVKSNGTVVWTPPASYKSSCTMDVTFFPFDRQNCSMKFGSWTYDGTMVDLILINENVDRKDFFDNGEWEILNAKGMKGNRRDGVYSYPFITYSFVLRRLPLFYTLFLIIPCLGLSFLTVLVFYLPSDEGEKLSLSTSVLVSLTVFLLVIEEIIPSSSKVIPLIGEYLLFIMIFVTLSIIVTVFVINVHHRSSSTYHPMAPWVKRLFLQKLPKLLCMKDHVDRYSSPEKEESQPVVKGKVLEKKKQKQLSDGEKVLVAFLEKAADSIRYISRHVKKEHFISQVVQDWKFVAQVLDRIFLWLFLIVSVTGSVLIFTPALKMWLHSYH
T1 sequence (P17787 whole entry): as the sequence (P17787 whole entry) above
T1 sequence (P43681 whole entry): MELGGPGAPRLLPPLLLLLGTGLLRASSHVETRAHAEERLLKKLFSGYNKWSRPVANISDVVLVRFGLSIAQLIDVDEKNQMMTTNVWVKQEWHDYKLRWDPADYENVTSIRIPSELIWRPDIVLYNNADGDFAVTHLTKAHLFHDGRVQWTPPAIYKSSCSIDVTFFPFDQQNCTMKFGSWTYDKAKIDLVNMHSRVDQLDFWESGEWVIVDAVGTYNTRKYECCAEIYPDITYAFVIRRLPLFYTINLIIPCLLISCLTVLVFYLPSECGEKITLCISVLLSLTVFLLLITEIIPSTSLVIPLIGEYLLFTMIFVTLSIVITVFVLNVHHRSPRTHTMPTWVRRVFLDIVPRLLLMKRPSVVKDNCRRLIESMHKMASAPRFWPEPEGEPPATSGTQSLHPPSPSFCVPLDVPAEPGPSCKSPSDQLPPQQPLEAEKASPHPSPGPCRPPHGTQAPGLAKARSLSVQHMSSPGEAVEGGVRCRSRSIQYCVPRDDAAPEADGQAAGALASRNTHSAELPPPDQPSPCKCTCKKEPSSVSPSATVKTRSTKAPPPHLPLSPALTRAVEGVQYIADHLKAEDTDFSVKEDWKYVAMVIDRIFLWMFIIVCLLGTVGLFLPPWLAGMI

| Structure (SMILES) | Ki [1] | Ki [2] | EC50 [3] | EC50 [4] | Emax [5] | Emax [6] | EC50 [7] | Emax [8] | also measured |
| --- | --- | --- | --- | --- | --- | --- | --- | --- | --- |
| CCCC(=O)N1CC2CC(C1)N2 | 0.014 µM | 0.35 µM | 0.58 µM | 0.85 µM | 120% | 110% | 0.3 µM | 92% | – |
| O=C([C@@H]1C[C@H]1F)N1CC2CC(C1)N2 | – | 0.043 µM | 0.12 µM | 0.87 µM | 110% | 110% | 0.053 µM | 130% | – |
| O=C([C@H]1C[C@H]1F)N1CC2CC(C1)N2 | – | 0.027 µM | 0.21 µM | 1.5 µM | 110% | 110% | 0.062 µM | 130% | – |
| O=C(C1CC1)N1CC2CC1CN2 (configuration not stated) | 2.8 µM | 10 µM | – | – | – | – | – | – | – |
| O=C(C1CC1)N1CC2CCC(C1)N2 | 0.32 µM | 7.2 µM | – | – | – | – | – | – | – |
| C[C@H]1C[C@@H]1C(=O)N1CC2CC(C1)N2 | 0.017 µM | 0.31 µM | 9.1 µM | 14 µM | 67% | 85% | 3.8 µM | 64% | – |
| O=C(C1CC1)N1CC2CC(C1)N2 | – | 0.021 µM | 0.14 µM | 0.85 µM | 110% | 110% | 0.08 µM | 100% | Cmax [9]: 200 ng/mL; Tmax [10]: 1 h; bioavailability [11]: 82.6%; half-life [12]: 1.58 h; concentration at 0.5 h [13]: 123 ng/mL; concentration at 0.5 h [14]: 39.5 ng/g; Kp at 0.5 h [15]: 0.22; concentration at 1 h [16]: 174 ng/mL; concentration at 1 h [17]: 53.7 ng/g; Kp at 1 h [18]: 0.31; concentration at 4 h [19]: 62.2 ng/mL; concentration at 4 h [20]: 20.2 ng/g; Kp at 4 h [21]: 0.32; inhibition (INH) (Rattus norvegicus): 24% |
| O=C(C1CC1)N1CCNCC1 | 6 µM | 26 µM | – | – | – | – | – | – | – |
| C[C@H]1C[C@H]1C(=O)N1CC2CC(C1)N2 | 0.007 µM | 0.17 µM | 2.2 µM | 5.8 µM | 87% | 93% | 2 µM | 60% | – |
| CC(C)C(=O)N1CC2CC(C1)N2 | 0.13 µM | 0.58 µM | 19 µM | 20 µM | 86% | 71% | 16 µM | 45% | – |
| O=C(C1CC1(F)F)N1CC2CC(C1)N2 (configuration not stated) | 0.0059 µM | 0.075 µM | 1 µM | 2.3 µM | 94% | 100% | 0.1 µM | 110% | – |
| CCC(=O)N1CC2CC(C1)N2 | 0.006 µM | 0.19 µM | 0.49 µM | 5.9 µM | 98% | 110% | 0.18 µM | 120% | – |
| C[C@@H]1C[C@@H]1C(=O)N1CC2CC(C1)N2 | – | 0.092 µM | 2.1 µM | 3.8 µM | 88% | 97% | 0.92 µM | 87% | – |
| O=C(C1CCCC1)N1CC2CC(C1)N2 | 0.16 µM | 2.9 µM | 11 µM | 29 µM | 48% | 68% | 1.6 µM | 62% | – |
| O=C(C1CCC1)N1CC2CC(C1)N2 | 0.016 µM | 0.24 µM | 2.9 µM | 11 µM | 100% | 99% | 0.37 µM | 80% | – |
| CC(=O)N1CC2CC(C1)N2 | 0.15 µM | 0.61 µM | 5.1 µM | 9.7 µM | 94% | 95% | 0.75 µM | 100% | – |
| C[C@@H]1C[C@H]1C(=O)N1CC2CC(C1)N2 | – | 0.014 µM | 0.19 µM | 2.9 µM | 110% | 110% | 0.051 µM | 110% | – |
| O=C([C@H]1C[C@@H]1F)N1CC2CC(C1)N2 | 0.0054 µM | 0.49 µM | 0.85 µM | 2.8 µM | 100% | 100% | 0.62 µM | 85% | – |
| CC1(C)CC1C(=O)N1CC2CC(C1)N2 (configuration not stated) | 0.0039 µM | 0.25 µM | 2.2 µM | 5.7 µM | 96% | 92% | 0.54 µM | 73% | – |
| O=C(C1CC=CC1)N1CC2CC(C1)N2 | 0.051 µM | 1.1 µM | 6.6 µM | 17 µM | 93% | 95% | 1.9 µM | 99% | – |
| O=C(CC1C=CCC1)N1CC2CC(C1)N2 (configuration not stated) | 0.053 µM | 2.5 µM | 14 µM | 37 µM | 89% | 94% | 21 µM | 47% | – |
| O=C([C@@H]1C[C@@H]1F)N1CC2CC(C1)N2 | 0.0017 µM | 0.055 µM | 0.12 µM | 0.37 µM | 120% | 110% | 0.088 µM | 120% | – |
